In PubChem BioAssay AID1963836 (Molecular Pharmacology Branch, DTP, NCI, 2024):

System: 857933-349-R-J2-PDC complex spheroid viability
Experiment: Anticancer human tumor 857933-349-R-J2-PDC patient-derived colon adenocarcinoma cell line growth inhibition [POLQ]
Details: for IC50: curve of first compound; for viability, T/C: stronger effect = lower value
Description: Multicellular complex tumor spheroid response to Polymerase (POL) inhibitors (novobiocin, ART-558, RP6685) in combination with a variety of drugs and investigational agents in selected tumor cell lines
The POL inhibitors (novobiocin, ART-558, and RP6685) were evaluated both individually and in combination with standard of care and investigational anticancer small molecules within a complex spheroid model of solid tumors. . Complex spheroids include a stromal component modeled by human endothelial cells (HUVEC) and fibroblasts modeled by human mesenchymal stem cells (MSCs). The concentration ranges selected for each drug and investigational agent were based upon clinically achievable concentrations if the clinical Cmax of the agent was known.
Compounds. The drugs and investigational agents: novobiocin (NSC847541), ART-558 (NSC835418), RP-6685 (NSC848927), peposertib (NSC802822), ceralasertib (NSC780249), elimusertib (NSC800525), camonsertib (NSC841442), AZD-1390 (NSC803789), olaparib (NSC753686), talazoparib (NSC767125), rucaparib (NSC756644), sotorasib (NSC818433), MRTX-1133 (NSC836407), SN-38 (NSC673596), topotecan (NSC609699), epotoside (NSC141540), doxorubicin (NSC123127), gemcitabine (NSC613327), 5-fluorouracil (NSC19893), paclitaxel (NSC125973), vemurafenib (NSC761431), MSA-2 (NSC828583), SN-011 (NSC837082), adavosertib (NSC754352), prexasertib (NSC758257), carboplatin (NSC241240) and oxaliplatin (NSC266046), were obtained from the National Cancer Institute (NCI) Developmental Therapeutics Program Chemical Repository (21). The FDA-approved anticancer drug set is available from the Developmental Therapeutics Program at https://dtp.cancer.gov/organization/dscb/obtaining/. […] The stock solutions were prepared in dimethyl sulfoxide (DMSO, Sigma-Aldrich, St. Louis, MO, cat. D2650), except for the platinum compounds which were prepared in saline (Quality Biological, Gaithersburg, MD, cat. 114-055-101), at 800-fold the tested concentration and stored at -70 degrees C prior to their use. All drugs and investigational agents were tested over a range starting from a high concentration at or near the clinical Cmax and decreasing in half-log increments. If the clinical Cmax for an agent had not been determined, the highest concentration tested was 10 microM, except for SN-38, which was tested at a high concentration of 1 microM.
Cell Culture. All cells were maintained in an incubator at 37 degrees C and 5% CO2 with 95% humidity. The PDC lines were cultured according to standard operating procedures established by the NCI PDMR (https://pdmr.cancer.gov). Table 3 of the manuscript, lists the cell lines along with the number of the three cell types plated to form the mct-spheroids and media for tumor cell growth. After thawing, all PDC lines, except 997537-175-T-J1-PDC and 415267-285-R-J2-PDC, were cultured in Matrigel-coated flasks prepared with a working solution of 1X Ham's F-12 nutrient mix, without supplementation (Thermo Fisher Scientific, cat. 11765054), 100 U/mL penicillin-streptomycin (Thermo Fisher Scientific, cat. 15140122), and 2.5% Matrigel (Corning Inc., Corning, NY, cat. 354248) for the first three passages. The two PDC lines 997537-175-T-J1-PDC and 415267-285-R-J2-PDC were cultured on uncoated flasks. The 857933-349-R-J2-PDC line was cultured in 6C/Colon 1B media containing advanced DMEM/F-12 (Thermo Fisher Scientific, cat. 12634028), 10 mM HEPES (Thermo Fisher Scientific, cat. 15630080), 1X GlutaMAX supplement (Thermo Fisher Scientific, cat. 35050061), 0.1 mg/mL primocin (InvivoGen, San Diego, CA, cat. ant-pm-2), 10% defined fetal bovine serum, heat inactivated (HyClone Laboratories Inc., Logan, UT, cat. SH30070.03HI), 50% L-WRN conditioned media (ATCC, cat. CRL-3276), 1.25 mM N-Acetyl-L-cysteine (Sigma-Aldrich, cat. A9165), 10 mM nicotinamide (Sigma-Aldrich, cat. N0636), 1X B-27 supplement (Thermo Fisher Scientific, cat. 17504044), 1X N-2 supplement (Thermo Fisher Scientific, cat. […]

[1] = second compound 0.0316 µM, first compound 0.0316 µM
[2] = second compound 0.0316 µM, first compound 0.1 µM
[3] = second compound 0.1 µM, first compound 0.0316 µM
[4] = second compound 0.1 µM, first compound 0.1 µM
[5] = second compound 0.316 µM, first compound 0.0316 µM
[6] = second compound 0.316 µM, first compound 0.1 µM
[7] = second compound 1 µM, first compound 0.0316 µM
[8] = second compound 1 µM, first compound 0.1 µM
[9] = second compound 3.16 µM, first compound 0.0316 µM
[10] = second compound 3.16 µM, first compound 0.1 µM
[11] = second compound 10 µM, first compound 0.0316 µM
[12] = second compound 10 µM, first compound 0.1 µM
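Note: spheroids exposed to compounds for seven days before readout.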

Question: Which IC50 (second compound 0.0316 µM) does the source give for `Cn1ncnc1[C@H]1c2n[nH]c(=O)c3cc(F)cc(c23)N[C@@H]1c1ccc(F)cc1` + Nc1ccc(C#CCN(C(=O)Cc2ncc(C(F)(F)F)cc2C(F)(F)F)c2ccc(F)cc2)nn1 here?
Answer: > 0.1 µM

Question: What about the IC50 (second compound 0.1 µM) of the same compound?
Answer: > 0.1 µM

Question: And the IC50 (second compound 0.316 µM)?
Answer: > 0.1 µM

Question: And the IC50 (second compound 1 µM)?
Answer: > 0.1 µM

Question: And the IC50 (second compound 3.16 µM)?
Answer: > 0.1 µM

Question: And the IC50 (second compound 10 µM)?
Answer: > 0.1 µM

Question: What about the viability, T/C (second compound 0.0316 µM, first compound 0.000316 µM) of the same compound?
Answer: 90.9%

Question: And the viability, T/C (second compound 0.0316 µM, first compound 0.001 µM)?
Answer: 83.9%

Question: What about the viability, T/C (second compound 0.0316 µM, first compound 0.00316 µM) of the same compound?
Answer: 80.7%

Question: And the viability, T/C (second compound 0.0316 µM, first compound 0.01 µM)?
Answer: 90%

Question: What about the viability, T/C [1] of the same compound?
Answer: 95%

Question: What about the viability, T/C [2] of the same compound?
Answer: 85.1%

Question: And the viability, T/C (second compound 0.1 µM, first compound 0.000316 µM)?
Answer: 92.7%

Question: What about the viability, T/C (second compound 0.1 µM, first compound 0.001 µM) of the same compound?
Answer: 92.7%

Question: What about the viability, T/C (second compound 0.1 µM, first compound 0.00316 µM) of the same compound?
Answer: 94%

Question: And the viability, T/C (second compound 0.1 µM, first compound 0.01 µM)?
Answer: 104%

Question: What about the viability, T/C [3] of the same compound?
Answer: 103%

Question: What about the viability, T/C [4] of the same compound?
Answer: 91.5%

Question: What about the viability, T/C (second compound 0.316 µM, first compound 0.000316 µM) of the same compound?
Answer: 104%

Question: And the viability, T/C (second compound 0.316 µM, first compound 0.001 µM)?
Answer: 101%

Question: And the viability, T/C (second compound 0.316 µM, first compound 0.00316 µM)?
Answer: 97%

Question: What about the viability, T/C (second compound 0.316 µM, first compound 0.01 µM) of the same compound?
Answer: 105%

Question: What about the viability, T/C [5] of the same compound?
Answer: 75%

Question: And the viability, T/C [6]?
Answer: 97.6%

Question: What about the viability, T/C (second compound 1 µM, first compound 0.000316 µM) of the same compound?
Answer: 105%

Question: What about the viability, T/C (second compound 1 µM, first compound 0.001 µM) of the same compound?
Answer: 85.8%

Question: What about the viability, T/C (second compound 1 µM, first compound 0.00316 µM) of the same compound?
Answer: 86%

Question: And the viability, T/C (second compound 1 µM, first compound 0.01 µM)?
Answer: 97.5%

Question: And the viability, T/C [7]?
Answer: 93.9%

Question: And the viability, T/C [8]?
Answer: 93.6%

Question: What about the viability, T/C (second compound 3.16 µM, first compound 0.000316 µM) of the same compound?
Answer: 86.2%

Question: And the viability, T/C (second compound 3.16 µM, first compound 0.001 µM)?
Answer: 80.2%

Question: What about the viability, T/C (second compound 3.16 µM, first compound 0.00316 µM) of the same compound?
Answer: 93.5%

Question: What about the viability, T/C (second compound 3.16 µM, first compound 0.01 µM) of the same compound?
Answer: 98%

Question: What about the viability, T/C [9] of the same compound?
Answer: 111%

Question: What about the viability, T/C [10] of the same compound?
Answer: 94.2%

Question: And the viability, T/C (second compound 10 µM, first compound 0.000316 µM)?
Answer: 84.8%

Question: And the viability, T/C (second compound 10 µM, first compound 0.001 µM)?
Answer: 82.1%

Question: And the viability, T/C (second compound 10 µM, first compound 0.00316 µM)?
Answer: 98.3%

Question: And the viability, T/C (second compound 10 µM, first compound 0.01 µM)?
Answer: 92.2%

Question: What about the viability, T/C [11] of the same compound?
Answer: 93.2%

Question: What about the viability, T/C [12] of the same compound?
Answer: 61.7%

Question: Which IC50 (second compound 0.0316 µM) does the source give for `CC(C)n1c(=O)n(C)c2cnc3cc(F)c(-c4ccc(OCCCN5CCCCC5)nc4)cc3c21` + Cc1cccc(N(C)C(=O)C2C(O)CCN2c2nc(C)cc(C(F)(F)F)c2C#N)c1 here?
Answer: > 10 µM

Question: And the IC50 (second compound 0.1 µM)?
Answer: > 10 µM

Question: And the IC50 (second compound 0.316 µM)?
Answer: > 10 µM

Question: And the IC50 (second compound 1 µM)?
Answer: > 10 µM

Question: And the IC50 (second compound 3.16 µM)?
Answer: > 10 µM

Question: And the IC50 (second compound 10 µM)?
Answer: > 10 µM

Question: What about the viability, T/C [1] of the same compound?
Answer: 106%

Question: What about the viability, T/C [2] of the same compound?
Answer: 78.1%

Question: What about the viability, T/C (second compound 0.0316 µM, first compound 0.316 µM) of the same compound?
Answer: 90.2%

Question: What about the viability, T/C (second compound 0.0316 µM, first compound 1 µM) of the same compound?
Answer: 113%

Question: What about the viability, T/C (second compound 0.0316 µM, first compound 3.16 µM) of the same compound?
Answer: 107%

Question: And the viability, T/C (second compound 0.0316 µM, first compound 10 µM)?
Answer: 69.8%

Question: What about the viability, T/C [3] of the same compound?
Answer: 97.7%

Question: What about the viability, T/C [4] of the same compound?
Answer: 107%

Question: What about the viability, T/C (second compound 0.1 µM, first compound 0.316 µM) of the same compound?
Answer: 98.9%

Question: What about the viability, T/C (second compound 0.1 µM, first compound 1 µM) of the same compound?
Answer: 105%

Question: And the viability, T/C (second compound 0.1 µM, first compound 3.16 µM)?
Answer: 87%

Question: And the viability, T/C (second compound 0.1 µM, first compound 10 µM)?
Answer: 68.5%

Question: And the viability, T/C [5]?
Answer: 97.2%

Question: What about the viability, T/C [6] of the same compound?
Answer: 94.3%

Question: What about the viability, T/C (second compound 0.316 µM, first compound 0.316 µM) of the same compound?
Answer: 104%

Question: And the viability, T/C (second compound 0.316 µM, first compound 1 µM)?
Answer: 94.9%

Question: And the viability, T/C (second compound 0.316 µM, first compound 3.16 µM)?
Answer: 105%

Question: What about the viability, T/C (second compound 0.316 µM, first compound 10 µM) of the same compound?
Answer: 88%

Question: And the viability, T/C [7]?
Answer: 80.7%

Question: And the viability, T/C [8]?
Answer: 73.8%

Question: What about the viability, T/C (second compound 1 µM, first compound 0.316 µM) of the same compound?
Answer: 92.6%

Question: And the viability, T/C (second compound 1 µM, first compound 1 µM)?
Answer: 110%

Question: What about the viability, T/C (second compound 1 µM, first compound 3.16 µM) of the same compound?
Answer: 114%

Question: What about the viability, T/C (second compound 1 µM, first compound 10 µM) of the same compound?
Answer: 66.9%

Question: And the viability, T/C [9]?
Answer: 83.6%

Question: And the viability, T/C [10]?
Answer: 89.2%

Question: What about the viability, T/C (second compound 3.16 µM, first compound 0.316 µM) of the same compound?
Answer: 116%

Question: What about the viability, T/C (second compound 3.16 µM, first compound 1 µM) of the same compound?
Answer: 79.3%

Question: What about the viability, T/C (second compound 3.16 µM, first compound 3.16 µM) of the same compound?
Answer: 102%

Question: And the viability, T/C (second compound 3.16 µM, first compound 10 µM)?
Answer: 75%

Question: And the viability, T/C [11]?
Answer: 73.2%

Question: And the viability, T/C [12]?
Answer: 65.9%

Question: And the viability, T/C (second compound 10 µM, first compound 0.316 µM)?
Answer: 87.9%

Question: And the viability, T/C (second compound 10 µM, first compound 1 µM)?
Answer: 97.3%

Question: What about the viability, T/C (second compound 10 µM, first compound 3.16 µM) of the same compound?
Answer: 106%

Question: And the viability, T/C (second compound 10 µM, first compound 10 µM)?
Answer: 64.5%
